Here are results for 1 compound from patent US5126344A, “Diazine derivatives and pharmaceutical use” (Imperial Chemical Industries PLC, priority 1989, dated 1992).

For assay [1], the target named is T1, angiotensin II (AII) receptors (Cavia porcellus, UniProt Q9WV26).
T1 construct: the source of cell surface membranes is the guinea pig adrenal gland; from tissue; host or cells: guinea pig adrenal gland, cell surface membrane fraction
T1 sequence (Q9WV26 1-359): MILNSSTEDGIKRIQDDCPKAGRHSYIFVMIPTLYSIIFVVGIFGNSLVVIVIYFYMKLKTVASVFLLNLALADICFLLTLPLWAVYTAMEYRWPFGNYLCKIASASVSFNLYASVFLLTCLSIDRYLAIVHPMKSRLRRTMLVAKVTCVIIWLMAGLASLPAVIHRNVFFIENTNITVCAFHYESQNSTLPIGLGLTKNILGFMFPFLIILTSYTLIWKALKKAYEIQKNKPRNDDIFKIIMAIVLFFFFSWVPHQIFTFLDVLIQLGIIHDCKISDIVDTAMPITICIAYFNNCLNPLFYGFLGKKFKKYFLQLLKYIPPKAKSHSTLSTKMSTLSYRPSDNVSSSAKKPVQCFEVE
The assay is described as follows: Test A: displacement of radiolabelled AII binding to cell surface membrane fraction from guinea pig adrenal gland. Particulars: guinea pig adrenal gland membranes, read-out: IC50 (concentration for 50% displacement of radiolabelled AII binding). The method, then: This in vitro procedure involves the incubation of the test compound initially at a concentration of 100 micromolar (or less) in a buffered mixture containing fixed concentrations of radiolabelled AII and a cell surface membrane fraction prepared from a suitable angiotensin target tissue. In this test, the source of cell surface membranes is the guinea pig adrenal gland which is well known to respond to AII. Interaction of the radiolabelled AII with its receptors (assessed as radiolabel bound to the particulate membrane fraction following removal of unbound radiolabel by a rapid filtration procedure such as is standard in such studies) is antagonized by compounds which also bind to the membrane receptor sites and the degree of antagonism (observed in the test as displacement of membrane-bound radioactivity) is determined readily by comparing the receptor-bound radioactivity in the presence of the test compound at the specified test concentration with a control value determined in the absence of the test compound. Using this procedure compounds showing at least 50% displacement of radiolabelled AII binding at a concentration of 10^-4 M are retested at lower concentrations to determine their potency. […]

Assay [2] deals with pressor responses induced by AII. The assay is described as follows: Test C: antagonism of AII-induced pressor responses in terminally-anaesthetised or conscious rats. The class given is in vivo. Particulars: iv, rat, i.v. administration. The method, then:
This in vivo test involves using terminally-anaesthetised or conscious rats in which an arterial catheter has been implanted under anaesthesia for the measurement of changes in blood pressure. The AII antagonistic effects of the test compound following oral or parenteral administration, are assessed against pressor responses induced by AII. To ensure that the effect is specific the effect of the test compound on vasopressin-induced pressor responses may also be determined in the same preparation.

In general, ED50 refers to the dose that gives a 50% effect, or the effect in half of the subjects. Read a high ED50 as weaker potency. For the compound `CCc1cc(OCc2ccc(-c3ccccc3-c3nnn[nH]3)cc2)c2nc(OC)ccc2n1.Cl` [Example 4, 2-ethyl-6-methoxy-4-[(2'-(1H-tetrazol-5-yl)-biphenyl-4-yl)methoxy]-1,5-naphthyridine hydrochloride], the IC50 in assay [1] was 0.02 µM. It took a dose of 0.6 mg/kg to reach the 50% effect level in assay [2] (ED50).
